Assay results reported in patent US6596271B2, “Insect control method with genetically engineered biopesticides” (priority 1996, dated 2003).
Marks after values point to notes of the source that are not given here.

Each molecule was assayed on neonate larvae of H. virescens (assay: not given). Settings: at the μg insecticide/vial of Table 4.
Assay type: in vivo, Heliothis virescens
Description: As indicated previously, these studies have emphasized the effects of combinations of viral and chemical insecticides on LT50, but the same approaches could be applied to dose as well as time. […] In practice a variety of factors would influence the rates used, including the cost and availability of the biological and chemical pesticide, environmental concerns, level of resistant populations in the field, and other pest management considerations.
Two of the compounds studied were pyrethroids, allethrin (Type I pyrethroid) or cypermethrin (Type II pyrethroid). In our study we found a subadditive response when low rates of allethrin or cypermethrin were combined with wild-type AcNPV.
In the case of `CCCSP(=O)(OCC)Oc1ccc(Br)cc1Cl` (centres unmarked) [Profenofos], the “% Mortality at 24 hours” value is reported as 16.3%. In the case of `Clc1ccc(C(c2ccc(Cl)cc2)C(Cl)(Cl)Cl)cc1` [DDT], the “% Mortality at 24 hours” value is reported as 18.8%. With `O=S1OCC2C(CO1)C1(Cl)C(Cl)=C(Cl)C2(Cl)C1(Cl)Cl` (centres unmarked) [Endosulfan] the “% Mortality at 24 hours” value was 17.5%. `CNC(=O)ON=C(C)SC` [Methomyl] was tested, and the “% Mortality at 24 hours” value was 20.8%. With `CC1(C)C(C=C(Cl)Cl)C1C(=O)OC(C#N)c1cccc(Oc2ccccc2)c1` (centres unmarked) [Cypermethrin] the “% Mortality at 24 hours” value was 11.8%. `C=CCC1=C(C)C(OC(=O)C2C(C=C(C)C)C2(C)C)CC1=O` (centres unmarked) [Allethrin] was tested, and the “% Mortality at 24 hours” value was 14.0%.

These molecules were tested on neonate larvae of H. virescens (assay: Time-response of neonate larvae to NPVs with low concentrations of classical insecticides (droplet feeding, treated vials)). Settings: 2000 PIBs and/or LC10-LC20 (24 h) insecticide.
Assay type: in vivo, Heliothis virescens
Description: For example, two of the compounds studied were pyrethroids, […]. In our study we found a subadditive response when low rates of allethrin or cypermethrin were combined with wild-type AcNPV.
`CCCSP(=O)(OCC)Oc1ccc(Br)cc1Cl` (centres unmarked) [Profenofos] was tested, and the “Actual Kill Time (LT50, h)” value was 401 h, the “LT10 (h; 95% CL)” value was 8.10 (2.61-17.5) h and the “LT50 (h; 95% CL)” value was 401 (260-676) h. With `Clc1ccc(C(c2ccc(Cl)cc2)C(Cl)(Cl)Cl)cc1` [DDT] the “Actual Kill Time (LT50, h)” value was 96.7 h, the “LT10 (h; 95% CL)” value was 12.6 (3.90-23.8) h and the “LT50 (h; 95% CL)” value was 96.7 (73.5-165) h. For the same molecule, the “LT90 (h; 95% CL)” value was 740 (318-10320) h. In the case of `O=S1OCC2C(CO1)C1(Cl)C(Cl)=C(Cl)C2(Cl)C1(Cl)Cl` (centres unmarked) [Endosulfan], the “Actual Kill Time (LT50, h)” value is reported as 73.3 h, the “LT10 (h; 95% CL)” value is reported as 10.4 (3.75-17.3) h and the “LT50 (h; 95% CL)” value is reported as 73.3 (61.0-90.3) h. For the same molecule, the “LT90 (h; 95% CL)” value was 514 (296-1580) h. In the case of `CNC(=O)ON=C(C)SC` [Methomyl], the “Actual Kill Time (LT50, h)” value is reported as 358 h, the “LT10 (h; 95% CL)” value is reported as 4.84 (0.12-13.1) h and the “LT50 (h; 95% CL)” value is reported as 358 (182-4070) h. The “LT90 (h; 95% CL)” value was 26563 (2870-1.25 × 10^8) h. For `CC1(C)C(C=C(Cl)Cl)C1C(=O)OC(C#N)c1cccc(Oc2ccccc2)c1` (centres unmarked) [Cypermethrin], the “Actual Kill Time (LT50, h)” value was 124 h, the “LT10 (h; 95% CL)” value was 17.1 (7.99-24.8) h and the “LT50 (h; 95% CL)” value was 124 (97.5-195) h. For the same molecule, the “LT90 (h; 95% CL)” value was 902 (436-4190) h. With `C=CCC1=C(C)C(OC(=O)C2C(C=C(C)C)C2(C)C)CC1=O` (centres unmarked) [Allethrin] the “Actual Kill Time (LT50, h)” value was 132 h, the “LT10 (h; 95% CL)” value was 17.3 (11.5-22.5) h and the “LT50 (h; 95% CL)” value was 132 (106-185) h. The “LT90 (h; 95% CL)” value was 1000 (552-2680) h.
